Laboratory results taken from ChEMBL document CHEMBL1124997, “Mechanism and inhibition of cytochrome P-450 aromatase” (J Med Chem, 1990).

T1: Aromatase (Homo sapiens, UniProt P11511)
T1 sequence (P11511 whole entry): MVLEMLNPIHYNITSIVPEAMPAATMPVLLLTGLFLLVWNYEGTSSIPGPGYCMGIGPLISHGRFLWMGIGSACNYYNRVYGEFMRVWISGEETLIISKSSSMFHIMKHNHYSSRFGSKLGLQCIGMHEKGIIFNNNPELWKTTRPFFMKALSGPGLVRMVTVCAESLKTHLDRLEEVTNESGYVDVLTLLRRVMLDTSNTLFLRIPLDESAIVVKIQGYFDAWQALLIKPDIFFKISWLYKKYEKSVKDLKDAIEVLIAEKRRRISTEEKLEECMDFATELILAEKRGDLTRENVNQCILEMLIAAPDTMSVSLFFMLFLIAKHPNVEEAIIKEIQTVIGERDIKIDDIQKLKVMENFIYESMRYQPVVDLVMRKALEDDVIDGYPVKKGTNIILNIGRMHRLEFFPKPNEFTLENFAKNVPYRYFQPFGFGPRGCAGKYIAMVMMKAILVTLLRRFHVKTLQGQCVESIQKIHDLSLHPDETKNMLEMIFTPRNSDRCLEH

T2: Aromatase (Rattus norvegicus, UniProt P22443)
T2 sequence (P22443 whole entry): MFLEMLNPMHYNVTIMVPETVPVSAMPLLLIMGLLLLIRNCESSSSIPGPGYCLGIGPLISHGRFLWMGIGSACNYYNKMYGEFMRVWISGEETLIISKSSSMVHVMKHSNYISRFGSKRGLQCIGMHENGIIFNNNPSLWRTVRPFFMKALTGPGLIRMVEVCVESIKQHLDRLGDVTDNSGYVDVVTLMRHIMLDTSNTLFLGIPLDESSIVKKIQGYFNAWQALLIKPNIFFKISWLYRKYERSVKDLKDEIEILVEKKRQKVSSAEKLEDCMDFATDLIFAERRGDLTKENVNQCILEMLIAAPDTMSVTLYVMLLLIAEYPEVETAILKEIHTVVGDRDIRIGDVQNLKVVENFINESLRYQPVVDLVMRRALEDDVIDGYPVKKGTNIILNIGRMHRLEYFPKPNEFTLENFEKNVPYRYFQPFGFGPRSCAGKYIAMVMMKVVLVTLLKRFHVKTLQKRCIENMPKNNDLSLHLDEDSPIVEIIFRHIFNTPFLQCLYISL

B1: Aromatase (Homo sapiens) (protein)
chain: T1 sequence (P11511 whole entry)

Biological target: T1, Aromatase
Test: (§1) Binding affinity for Cytochrome P450 19A1

In order of rising IC50:
1. Clc1ccc(COC(Cn2cccc2)c2ccc(Cl)cc2Cl)cc1 (stereo unspecified)  30 nM
2. C[C@]12CCC3C(CCC4=C(O)C(=O)CC[C@@]43C(F)F)C1CCC2=O (stereo partly specified)  3300 nM

Biological target: T2, Aromatase
Test: as §1

Work on `Clc1ccc(C2c3ccc(Cl)cc3-c3ncncc32)cc1` (stereo unspecified) yielded a Ki of 24 nM.

Biological target: T1, Aromatase

In order of rising Ki:
1. C[C@]12CCC3C(CCC4=CC(=O)CC[C@@]43C(F)F)C1CCC2=O (stereo partly specified)  1 nM
2. C[C@]12CCC3C(CCC4=CC(=O)CC[C@]43C3CS3)C1CCC2=O (stereo partly specified)  1 nM
3. CSC[C@]12CCC(=O)C=C1CCC1C2CC[C@]2(C)C(=O)CCC12 (stereo partly specified)  1 nM
4. CC1(C)C[C@@]2(C)C(=CC1=O)CCC1C2CC[C@]2(C)C(=O)CCC12 (stereo partly specified)  2.3 nM
5. C=C[C@]12CCC(=O)C=C1CCC1C2CC[C@]2(C)C(=O)CCC12 (stereo partly specified)  3 nM
6. C=C1C=C2CCC3C(CC[C@]4(C)C(=O)CCC34)[C@@]2(C)CC1 (stereo partly specified)  4.7 nM
7. O=c1cc(-c2ccccc2)oc2c1ccc1ccc(O)cc12  5 nM
8. CC[C@]12CCC(=O)C=C1CCC1C2CC[C@]2(C)C(=O)CCC12 (stereo partly specified)  9 nM
9. C[C@]12CCC(=O)C=C1C[C@@H](Sc1ccc(I)cc1)C1C2CC[C@]2(C)C(=O)CCC12 (stereo partly specified)  12 nM
10. C[C@]12CCC(=O)C(N)=C1CCC1C2CC[C@]2(C)C(=O)CCC12 (stereo partly specified)  37 nM
11. C[C@]12CCC(=O)C(O)=C1CC[C@@H]1[C@@H]2CC[C@]2(C)C(=O)CC[C@@H]12 [FORMESTANE]  50 nM
12. C/C=C/[C@]12CCC(=O)C=C1CCC1C2CC[C@]2(C)C(=O)CCC12 (stereo partly specified)  56 nM
13. C[C@]12CCC3C(CCC4=CC(=O)CC[C@@]43C3CS3)C1CCC2=O (stereo partly specified)  75 nM
14. C[C@]12C=CC(=O)C=C1C=C[C@@H]1[C@@H]2CC[C@]2(C)C(=O)CC[C@@H]12  180 nM
15. C[C@@]12CCCC1C1CCC3=CC(=O)C=C[C@]3(C)C1CC2 (stereo partly specified)  1100 nM
16. CCC[C@]12CCC(=O)C=C1CCC1C2CC[C@]2(C)C(=O)CCC12 (stereo partly specified)  3000 nM
17. C[C@]12CCC(=O)C=C1[C@H](Br)CC1C2CC[C@@]2(C)C1CC[C@@H]2OC(=O)CBr (stereo partly specified)  25000 nM
18. C[C@]12CCC(=O)C=C1C[C@@H](Sc1ccc(NC(=O)CBr)cc1)C1C2CC[C@]2(C)C(=O)CCC12 (stereo partly specified)  33000 nM
19. C[C@]12C=CC(=O)C=C1CCC1C2CC[C@]2(C)OC(=O)CCC12 (stereo partly specified)  35000 nM

Biological target: T1, Aromatase
Test: Time-dependent irreversible inactivation of human placental Cytochrome P450 19A1

In order of rising kinact:
1. C[C@]12CCC3C(CCC4=CC(=O)CC[C@@]43C(F)F)C1CCC2=O (stereo partly specified)  0.000383 s⁻¹
2. C[C@]12CCC(=O)C=C1[C@H](Br)CC1C2CC[C@@]2(C)C1CC[C@@H]2OC(=O)CBr (stereo partly specified)  0.000457 s⁻¹
3. C[C@]12CCC(=O)C=C1C[C@@H](Sc1ccc(N=[N+]=[N-])cc1)C1C2CC[C@]2(C)C(=O)CCC12 (stereo partly specified)  0.00166 s⁻¹
4. C[C@]12CCC(=O)C=C1C[C@@H](Sc1ccc(NC(=O)CBr)cc1)C1C2CC[C@]2(C)C(=O)CCC12 (stereo partly specified)  0.00247 s⁻¹

Biological target: T2, Aromatase

`Cn1nnc2ccc(C(c3ccc(Cl)cc3)n3cncn3)cc21` (stereo not drawn) [rac-VOROZOLE] gave an IC50 of 3 nM.

Substrate: C[C@]12CCC(=O)C=C1CCC1C2CC[C@@]2(C)C1C[C@@H](O)[C@@H]2O
Test: as §1
Parameters: species or system Homo sapiens

In the case of B1, the Km is reported as 58 µM.

Substrate: C[C@]12CCC(=O)C=C1CC[C@@H]1[C@@H]2CC[C@]2(C)C(=O)CC[C@@H]12
Test: as §1
Parameters: species or system Homo sapiens

B1 showed a Km of 0.03 µM.

Substrate: C[C@]12CCC(=O)C=C1CC[C@@H]1[C@@H]2CC[C@]2(C)C(=O)CC[C@@H]12
Test: (§2) Km for Cytochrome P450 19A1

B1 gave a Km of 0.06 µM.

Substrate: C[C@]12CC[C@H]3[C@@H](CCC4=CC(=O)CC[C@@]43C)[C@@H]1CC[C@@H]2O
Test: as §2

For B1, the Km was 0.21 µM.
